Assay results reported in paper PMC6753678, “Fueling Open Innovation for Malaria Transmission-Blocking Drugs: Hundreds of Molecules Targeting Early Parasite Mosquito Stages” (Frontiers in Microbiology, 2019).
Read-outs that look alike come from different tables or passages of the source.

Tests used:
HepG2 cells = test: HepG2 cytotoxicity assay; conditions: for Pb ODA (this manuscript) HepG2 cytoxicity: HepG2 cytotoxicity listed with the Pb ODA data set (this manuscript); for IC50: read-out: HepG2 cytotoxicity assay IC50, dose response confirmation
Procedure, shortened: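 Cells are plated at 2,500 per well on compound-treated plates in MEM containing 10% fetal bovine serum and 1% NEAA, then incubated 48 h at 37°C.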

[1] = tested on: 3D7-strain P. falciparum asexual parasites; test: P. falciparum asexual growth inhibition assay (Pf GIA); format: cell-based, Plasmodium falciparum; conditions: dose response confirmation; read-out: Pf asexual growth inhibition assays IC50
Procedure, shortened: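 Read-out was lactate dehydrogenase activity measured by absorbance at 650 nm after freezing and thawing, against 50 μM chloroquine and DMSO controls. Before that, asexual 3D7 cultures (0.25% parasitemia, 2% hematocrit) had 72 h dose-response compound exposure at 37°C in 5% CO2/5% O2/90% N2; three independent replicates averaged.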

[2] = tested on: P. berghei ookinete development; conditions: for % inhibition, Replicate A / % inhibition, Replicate B: primary screen at 1 μM
[3] = read-out: Pb ODA (this manuscript) IC50, P. berghei ookinete development assay, this manuscript
[4] = read-out: Pb Ookinete development assay IC50, dose response confirmation
[5] = unified HepG2 value across the three screens
[6] = read-out: Pb ODA IC50, this manuscript
[7] = HepG2 values of the three screens unified

SMILES | Pb ODA (this manuscript) HepG2 cytoxicity (HepG2 cells) [µM] | IC50 (HepG2 cells) [nM] | IC50 [1] [nM] | Is compound selective in assay? Pb ODA active? [2] | % inhibition, Replicate A [2] [%] | % inhibition, Replicate B [2] [%] | IC50 [2, 3] [nM] | IC50 [2, 4] [nM] | Unified cytotox (HepG2 cells; [5]) [µM] | Is compound selective in assay? Pb ODA active? ([2]; 1: YES, 0: NO) | IC50 [2, 6] [nM] | Unified cytotox (HepG2 cells; [7]) [µM] | % inhibition, Replicate A ([2]; 1 µM) [%] | % inhibition, Replicate B ([2]; 1 µM) [%]
Br.CC1(C)NC(N)=NC(=N)N1OCCCOc1cccc(Cl)c1 [TCMDC-131762] | 0.001 | 1 | < 0.2 | 0 (key: 1: YES; 0: NO) | 47.79 | 53.67 | 2100 | 2100 | – | – | – | – | – | –
CC[C@H]1CN2CCc3cc(OC)c(OC)cc3[C@@H]2C[C@@H]1C[C@H]1NCCc2c1cc(OC)c(O)c2Cl [TCMDC-131802] | 4.52 | 4520 | 156 | 1 (key: 1: YES; 0: NO) | 61.67 | 93.54 | 270 | 268 | – | – | – | – | – | –
Br.CC[C@H]1CN2CCc3cc(OC)c(OC)cc3[C@@H]2C[C@@H]1C[C@H]1NCCc2c1cc(OC)c(O)c2I [TCMDC-131829] | 5.43 | 5430 | 98 | 1 (key: 1: YES; 0: NO) | 45.92 | 90.22 | 410 | 412 | – | – | – | – | – | –
CC[C@@]1(O)C(=O)OCc2c1cc1n(c2=O)Cc2c-1nc1cc3c(cc1c2CN1CCN(C)CC1)OCCO3.Cl [TCMDC-131875] | – | 1260 | 204 | – | 61.11 | 69.44 | – | 2370 | 1.26 | 0 (0: NO) | 2370 | – | – | –
CC[C@@]1(O)C(=O)OCc2c1cc1n(c2=O)Cc2c-1nc1cc3c(cc1c2CN1CCOCC1)OCO3.O=C(O)C(F)(F)F [TCMDC-131876] | – | 470 | 7 | – | 79.37 | 70.89 | – | 1250 | 0.47 | 0 (0: NO) | 1250 | – | – | –
Nc1nc(N)c2c(ccc3c2cnn3Cc2cccnc2)n1 [TCMDC-131932] | 0.055 | 55 | 1.3 | 0 (key: 1: YES; 0: NO) | 68.89 | 58.00 | 2390 | 2390 | – | – | – | – | – | –
CN(C)S(=O)(=O)n1ncc2c3c(N)nc(N)nc3ccc21.Cl [TCMDC-131933] | 0.001 | 1 | 23 | 0 (key: 1: YES; 0: NO) | 39.05 | 54.28 | 540 | 539 | – | – | – | – | – | –
COc1ccc(Cn2ncc3c4c(N)nc(N)nc4ccc32)cc1OC [TCMDC-131934] | 0.00214 | 2.14 | 58 | 0 (key: 1: YES; 0: NO) | 44.86 | 51.03 | 1530 | 1530 | – | – | – | – | – | –
CCCCCCCc1cc(=O)c2ccccc2[nH]1 [TCMDC-132026] | 20.65 | 20600 | 458 | 1 (key: 1: YES; 0: NO) | 86.88 | 74.93 | 1140 | 1140 | – | – | – | – | – | –
Nc1c2ccccc2nc2ccc(Cl)cc12 [TCMDC-132029] | – | 13500 | 324 | – | 75.70 | 81.80 | – | 1460 | 13.49 | 0 (0: NO) | 1460 | – | – | –
COc1ccc2c(=O)c3ccc(OC)cc3[nH]c2c1 [TCMDC-132054] | 100.00 | 100000 | 2420 | 1 (key: 1: YES; 0: NO) | 107.15 | 103.78 | 580 | 575 | – | – | – | – | – | –
COc1ccc(C23Oc4cc(OC)cc(OC)c4C2(O)C2(CC3c3ccccc3)SCCCS2)cc1 (centres unmarked) [TCMDC-132098] | – | 100000 | 712 | – | 104.91 | 114.13 | – | 401 | 100.00 | 1 (1: YES) | 400 | – | – | –
COc1ccc(-c2ccc([N+](=O)[O-])cc2C(=O)NCC(C)Oc2ccc(C(F)(F)F)cc2)cc1 (centres unmarked) [TCMDC-132304] | – | 100000 | 520 | – | 29.22 | 50.52 | – | 4010 | 100.00 | 1 (1: YES) | 4010 | – | – | –
Cc1[nH]c(C)c(-c2ccc(-c3ccc(OCC(F)(F)F)cc3)nc2)c(=O)c1Cl [TCMDC-132306] | – | 100000 | 655 | – | 58.32 | 97.73 | – | 1240 | – | 1 (1: YES) | 1240 | 100.00 | – | –
Cc1[nH]c(C)c(-c2ccc(-c3ccc(C(F)F)cc3)nc2)c(=O)c1Cl [TCMDC-132329] | – | 100000 | 1440 | – | 72.54 | 35.56 | – | 7800 | – | 1 (1: YES) | 7800 | 100.00 | – | –
Cc1noc(C)c1-c1cccc(CNCc2ccc(-c3cccc(-c4nc5cc(F)ccc5[nH]4)c3)cc2)c1.O=C(O)C(F)(F)F [TCMDC-133060] | – | 15500 | 1300 | – | 12.93 | 53.61 | – | 13700 | 15.49 | 0 (0: NO) | 13700 | – | – | –
Cc1noc(C)c1-c1cccc(CNCc2ccc(-c3ccc(-c4nc5cccc(C)c5[nH]4)cc3)cc2)c1.O=C(O)C(F)(F)F [TCMDC-133061] | – | 7940 | 120 | – | 50.05 | 37.24 | – | 2660 | 7.94 | 0 (0: NO) | 2660 | – | – | –
Cc1cc(=O)c(-c2ccc(Oc3cccc(C(F)(F)F)c3)cc2)c(C)[nH]1 [TCMDC-133308] | 14.45 | 14400 | 385 | 1 (key: 1: YES; 0: NO) | – | – | 730 | 733 | – | – | – | – | 59.11 | 56.29
COc1ccc(-c2cnc(N)c(-c3ccc(C(N)=O)cc3)c2)cc1OC [TCMDC-133349] | – | 100000 | 666 | – | 68.77 | 82.48 | – | 426 | 100.00 | 1 (1: YES) | 430 | – | – | –
